Measurements reported in publication PMC3037272 (Journal of medicinal chemistry, 2010).

Columns and labels:
[1] = biological target: T1, 26S proteasome β1 subunit (Oryctolagus cuniculus, UniProt A0A5F9DQW2); type: biochemical, rabbit
T1 sequence (A0A5F9DQW2 1-212): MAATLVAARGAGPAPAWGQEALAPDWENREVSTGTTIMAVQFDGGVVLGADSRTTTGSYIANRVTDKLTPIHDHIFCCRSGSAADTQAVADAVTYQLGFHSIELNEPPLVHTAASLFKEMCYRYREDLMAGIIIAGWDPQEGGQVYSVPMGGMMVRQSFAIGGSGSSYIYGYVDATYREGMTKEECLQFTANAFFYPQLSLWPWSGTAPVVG

[2] = biological target: T2, 26S proteasome β5 subunit (Oryctolagus cuniculus, UniProt G1T4Q9); type: biochemical, rabbit
T2 sequence (G1T4Q9 1-263): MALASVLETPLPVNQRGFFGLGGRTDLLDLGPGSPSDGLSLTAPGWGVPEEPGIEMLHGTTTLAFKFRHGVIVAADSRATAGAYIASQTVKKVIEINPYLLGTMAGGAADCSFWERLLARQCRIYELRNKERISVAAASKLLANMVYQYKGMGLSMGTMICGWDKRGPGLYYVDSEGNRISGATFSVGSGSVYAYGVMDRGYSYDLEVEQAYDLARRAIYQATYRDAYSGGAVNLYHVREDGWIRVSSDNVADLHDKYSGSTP

[3] = biological target: T3, 26S proteasome β2 subunit (Oryctolagus cuniculus, UniProt G1SWK8)
T3 sequence (G1SWK8 1-271): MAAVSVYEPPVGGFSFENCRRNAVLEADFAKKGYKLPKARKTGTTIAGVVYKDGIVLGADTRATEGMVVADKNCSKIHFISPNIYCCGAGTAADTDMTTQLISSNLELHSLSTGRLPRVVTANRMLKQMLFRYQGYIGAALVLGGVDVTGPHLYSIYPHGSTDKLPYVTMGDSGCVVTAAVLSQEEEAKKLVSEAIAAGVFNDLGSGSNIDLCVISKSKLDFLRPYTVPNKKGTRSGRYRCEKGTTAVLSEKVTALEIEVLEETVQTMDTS

proteasome β5 subunit = proteasome β5 subunit (Homo sapiens, UniProt P28074); assay: Competition assay against fluorescent probe MV151; type: binding; conditions: HEK-293 lysate
proteasome β1 subunit = proteasome β1 subunit (Homo sapiens, UniProt P28072); assay: Competition assay against fluorescent probe MV151; type: binding; conditions: HEK-293 lysate, between 100 and 250 nM, competition against 9
proteasome β2 subunit = proteasome β2 subunit (Homo sapiens, UniProt Q99436); assay: Competition assay against fluorescent probe MV151; conditions: HEK-293 lysate

| Compound | IC50 [1] [nM] | IC50 [2] [nM] | IC50 [3] [nM] | concentration at which inhibition of β5 is apparent (proteasome β5 subunit; concentration series 1 nM to 1 μM, competition against 9) [nM] | effect on β1 when β5 is saturated (proteasome β1 subunit) | effect on β2 when β5 is saturated (proteasome β2 subunit; between 100 and 250 nM, competition against 9) | β2 band in competition assay (proteasome β2 subunit; 1 μM inhibitor, Figure 3) | concentration at which labeling of the β5 subunit is visible (proteasome β5 subunit; direct fluorescent labeling, read-out at 520 nm) [nM] |
| --- | --- | --- | --- | --- | --- | --- | --- | --- |
| CC(C)C[C@H](NC(=O)[C@H](Cc1cc(C(F)(F)F)cc(C(F)(F)F)c1)NC(=O)c1cnccn1)B1OC2C[C@@H]3C[C@@H](C3(C)C)[C@]2(C)O1 (some centres unmarked) [2b] | 160 | 3 | 11000 |  |  |  |  |  |
| CC(C)C[C@H](NC(=O)[C@H](Cc1c(F)c(F)c(F)c(F)c1F)NC(=O)[C@H](Cc1ccccc1)NC(=O)[C@H](Cc1ccccc1)N=[N+]=[N-])C(=O)[C@@]1(C)CO1 [4a] | > 15000 |  |  | 5 | unaffected or even upregulated | unaffected or even upregulated | the majority of the corresponding band in Figure 3 is gone |  |
| CC(C)C[C@H](NC(=O)[C@H](Cc1ccccc1)NC(=O)[C@H](Cc1c(F)c(F)c(F)c(F)c1F)NC(=O)[C@H](Cc1ccccc1)N=[N+]=[N-])C(=O)[C@@]1(C)CO1 [5a] | > 15000 | 200 | > 15000 |  |  |  |  |  |
| CC(C)C[C@H](NC(=O)[C@H](Cc1ccccc1)NC(=O)[C@H](Cc1cc(C(F)(F)F)cc(C(F)(F)F)c1)NC(=O)[C@H](Cc1ccccc1)N=[N+]=[N-])C(=O)[C@@]1(C)CO1 [5b] | > 15000 | 130 | > 15000 |  |  |  |  |  |
| CC(C)C[C@H](NC(=O)[C@H](Cc1ccccc1)NC(=O)[C@H](Cc1ccccc1)NC(=O)[C@H](Cc1ccccc1)N=[N+]=[N-])C(=O)[C@@]1(C)CO1 [compound 3] | > 15000 |  |  |  |  |  |  |  |
| CC1=CC(C)=[N+]2C1=C(CCCCc1cn([C@@H](Cc3ccccc3)C(=O)N[C@@H](Cc3ccccc3)C(=O)N[C@@H](Cc3c(F)c(F)c(F)c(F)c3F)C(=O)N[C@@H](CC(C)C)C(=O)[C@@]3(C)CO3)nn1)c1c(C)cc(C)n1[B-]2(F)F [compound 7] | > 10000 | 300 | > 10000 |  |  |  |  | 1 |

Further lines, with some results ahead:

| IC50 [1] [nM] | IC50 [2] [nM] | IC50 [3] [nM] | concentration at which inhibition of β5 is apparent (proteasome β5 subunit; concentration series 1 nM to 1 μM, competition against 9) [nM] | effect on β1 when β5 is saturated (proteasome β1 subunit) | effect on β2 when β5 is saturated (proteasome β2 subunit; between 100 and 250 nM, competition against 9) | Compound | β2 band in competition assay (proteasome β2 subunit; 1 μM inhibitor, Figure 3) | concentration at which labeling of the β5 subunit is visible (proteasome β5 subunit; direct fluorescent labeling, read-out at 520 nm) [nM] |
| --- | --- | --- | --- | --- | --- | --- | --- | --- |
| 440 |  |  |  |  |  | CC(C)C[C@H](NC(=O)[C@H](Cc1c(F)c(F)c(F)c(F)c1F)NC(=O)c1cnccn1)B1OC2C[C@@H]3C[C@@H](C3(C)C)[C@]2(C)O1 (some centres unmarked) [2a] |  |  |
| > 15000 | 100 | > 15000 |  |  |  | CC(C)C[C@H](NC(=O)[C@H](Cc1cc(C(F)(F)F)cc(C(F)(F)F)c1)NC(=O)[C@H](Cc1ccccc1)NC(=O)[C@H](Cc1ccccc1)N=[N+]=[N-])C(=O)[C@@]1(C)CO1 [4b] |  |  |
